Assay results published in ChEMBL document CHEMBL1201862, “PubChem BioAssay data set” (2004).
One block for each molecule: values may come before it. Activity calls are given as the source filed them.

What was measured:
[1] = biological target: Lysine-specific demethylase 4A (Homo sapiens, UniProt O75164); test: inhibition of JMJD2A H3K9me3 demethylation – biochemical, DELFIA europium, cherry-picked samples, selectivity assay for GASC-1 inhibitor project, dose response (AID 488840)
[2] = biological target: Neuropeptide Y receptor type 2 (Homo sapiens, UniProt P49146); test: IC50 for human NPY-Y2 blockade – cell-based, counter-screen for NPY-Y1 antagonist project, dose response (AID 1278); assay type: functional
[3] = biological target: Neuropeptide Y receptor type 1 (Homo sapiens, UniProt P25929); test: IC50 of human NPY-Y1 blockers – cell-based, dose response (AID 1277); assay type: functional
Jurkat = test: blockers of NF-kB activation in T cells – Jurkat, luciferase reporter, luminescence, B- and T-cell, dose response (AID 489004); assay type: functional, cell-based; settings: Homo sapiens;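 note: NF-kB luciferase reporter Jurkat cells stimulated with PMA plus ionomycin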
[4] = HEK-293T viability loss, compound-treated – cell-based, uHTS hits, cytotoxicity control for B/T-cell NF-kB inhibitor project, dose response (AID 489019); assay type: functional;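 note: IC50 reflects cytotoxicity as loss of cell viability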
INS1 = test: INS-1E survival protection against cytokine death – cell-based, luminescence, retest, dose response (AID 449756); assay type: functional; settings: Rattus norvegicus;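 note: cell death triggered by IL-1 beta plus TNF-alpha plus IFN-gamma mixture; protective hits raise ATP signal compared with cytokine alone wells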
[5] = biological target: T1, Ubiquitin-conjugating enzyme E2 N (Homo sapiens, UniProt P61088); assay type: functional;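 note: Dose-response confirmation in a TR-FRET assay detecting UBC13-driven polyubiquitin chain formation, inhibition measured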
T1 sequence (P61088 whole entry): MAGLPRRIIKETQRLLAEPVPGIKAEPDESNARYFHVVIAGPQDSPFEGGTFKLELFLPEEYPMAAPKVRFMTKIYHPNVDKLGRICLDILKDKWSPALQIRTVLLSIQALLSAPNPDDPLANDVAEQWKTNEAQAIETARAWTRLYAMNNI

Cytochrome P450 2C19 = Cytochrome P450 2C19 (Homo sapiens, UniProt P33261); test: Cytochrome panel assay with activity outcomes. Panel member name: p450-cyp2c19 Compounds with AC50 equal or less than 10 uM are considered active; assay type: functional
Cytochrome P450 1A2 = biological target: T2, Cytochrome P450 1A2 (Homo sapiens, UniProt P05177);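 note: PubChem cytochrome P450 panel assay, CYP1A2 panel member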
T2 sequence (P05177 whole entry): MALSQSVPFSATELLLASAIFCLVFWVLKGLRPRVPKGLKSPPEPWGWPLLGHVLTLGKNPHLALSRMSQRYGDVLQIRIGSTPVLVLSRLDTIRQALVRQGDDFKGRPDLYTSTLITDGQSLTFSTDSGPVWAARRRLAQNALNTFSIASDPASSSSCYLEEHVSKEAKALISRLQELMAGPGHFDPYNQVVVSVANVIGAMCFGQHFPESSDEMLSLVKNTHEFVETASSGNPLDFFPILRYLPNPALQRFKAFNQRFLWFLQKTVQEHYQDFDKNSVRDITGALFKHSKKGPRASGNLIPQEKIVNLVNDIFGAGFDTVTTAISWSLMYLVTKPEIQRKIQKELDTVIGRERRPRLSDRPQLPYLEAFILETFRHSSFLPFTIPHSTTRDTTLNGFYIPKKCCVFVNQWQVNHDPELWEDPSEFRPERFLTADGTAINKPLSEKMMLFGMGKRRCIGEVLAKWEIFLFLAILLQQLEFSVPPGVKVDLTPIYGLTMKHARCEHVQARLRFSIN

Cytochrome P450 2C9 = Cytochrome P450 2C9 (Homo sapiens, UniProt P11712)
Trypsin = Trypsin (Sus scrofa, UniProt P00761); test: trypsin protease activity blockade – biochemical, quenched peptide fluorescence, cherry-pick, selectivity assay for Rce1 protease inhibitor project, dose response (AID 488789)
CAAX prenyl protease 1 = CAAX prenyl protease 1 (Saccharomyces cerevisiae S288c, UniProt P47154); test: yeast CAAX protease Ste24 inhibition – biochemical, S. cerevisiae, plate reader, cherry-pick, dose response (AID 488815)
CAAX prenyl protease 2 = biological target: T3, CAAX prenyl protease 2 (Homo sapiens, UniProt Q9Y256); test: inhibition of Ras-converting CAAX protease Rce1 – biochemical, yeast membranes, quenched-peptide fluorescence, cherry-pick, dose response (AID 588849)
T3 sequence (Q9Y256 whole entry): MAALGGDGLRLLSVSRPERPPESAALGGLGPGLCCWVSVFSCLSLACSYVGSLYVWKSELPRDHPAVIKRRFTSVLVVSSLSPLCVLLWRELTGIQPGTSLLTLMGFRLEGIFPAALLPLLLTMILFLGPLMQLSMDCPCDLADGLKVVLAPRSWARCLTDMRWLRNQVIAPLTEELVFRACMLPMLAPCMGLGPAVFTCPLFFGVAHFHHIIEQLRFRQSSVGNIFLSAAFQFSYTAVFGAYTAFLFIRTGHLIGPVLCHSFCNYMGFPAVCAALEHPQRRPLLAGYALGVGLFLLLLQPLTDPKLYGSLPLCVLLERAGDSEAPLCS

Neuropeptide Y receptor type 1, sequence (P25929 whole entry): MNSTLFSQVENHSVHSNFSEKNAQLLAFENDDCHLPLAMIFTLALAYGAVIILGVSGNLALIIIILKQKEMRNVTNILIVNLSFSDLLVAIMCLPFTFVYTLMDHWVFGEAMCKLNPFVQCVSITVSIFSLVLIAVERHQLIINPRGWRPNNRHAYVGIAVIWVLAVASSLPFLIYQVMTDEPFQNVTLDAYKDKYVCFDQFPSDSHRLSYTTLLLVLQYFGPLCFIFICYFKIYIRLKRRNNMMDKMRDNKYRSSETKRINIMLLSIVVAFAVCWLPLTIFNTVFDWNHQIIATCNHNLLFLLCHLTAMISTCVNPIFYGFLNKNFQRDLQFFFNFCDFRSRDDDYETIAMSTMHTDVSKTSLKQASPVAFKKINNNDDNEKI
Cytochrome P450 2C19, sequence (P33261 whole entry): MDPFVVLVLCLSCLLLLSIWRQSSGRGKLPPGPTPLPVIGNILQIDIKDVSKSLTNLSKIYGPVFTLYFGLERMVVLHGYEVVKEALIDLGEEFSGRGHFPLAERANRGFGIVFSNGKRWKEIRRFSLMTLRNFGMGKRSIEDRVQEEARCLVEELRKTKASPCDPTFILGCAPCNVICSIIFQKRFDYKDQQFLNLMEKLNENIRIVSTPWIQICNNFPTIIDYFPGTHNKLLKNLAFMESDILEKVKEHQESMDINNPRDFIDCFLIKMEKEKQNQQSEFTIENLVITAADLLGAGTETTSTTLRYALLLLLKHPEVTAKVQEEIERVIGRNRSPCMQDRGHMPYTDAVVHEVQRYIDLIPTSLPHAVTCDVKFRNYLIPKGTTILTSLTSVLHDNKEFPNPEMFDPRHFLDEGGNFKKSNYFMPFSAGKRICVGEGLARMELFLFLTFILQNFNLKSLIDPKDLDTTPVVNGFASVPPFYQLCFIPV
Cytochrome P450 2C9, sequence (P11712 whole entry): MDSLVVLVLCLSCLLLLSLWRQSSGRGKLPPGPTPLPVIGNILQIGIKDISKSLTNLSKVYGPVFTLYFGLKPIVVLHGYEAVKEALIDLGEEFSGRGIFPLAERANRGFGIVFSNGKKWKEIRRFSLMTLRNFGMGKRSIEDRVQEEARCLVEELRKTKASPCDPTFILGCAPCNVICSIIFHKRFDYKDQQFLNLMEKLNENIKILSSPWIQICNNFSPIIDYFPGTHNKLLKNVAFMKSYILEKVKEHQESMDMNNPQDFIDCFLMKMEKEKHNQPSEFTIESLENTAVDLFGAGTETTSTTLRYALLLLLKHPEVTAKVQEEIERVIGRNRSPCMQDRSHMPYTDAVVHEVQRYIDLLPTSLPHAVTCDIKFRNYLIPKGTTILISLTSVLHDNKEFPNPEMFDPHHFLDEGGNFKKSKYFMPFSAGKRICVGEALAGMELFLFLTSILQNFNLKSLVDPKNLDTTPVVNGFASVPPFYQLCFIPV
CAAX prenyl protease 1, sequence (P47154 whole entry): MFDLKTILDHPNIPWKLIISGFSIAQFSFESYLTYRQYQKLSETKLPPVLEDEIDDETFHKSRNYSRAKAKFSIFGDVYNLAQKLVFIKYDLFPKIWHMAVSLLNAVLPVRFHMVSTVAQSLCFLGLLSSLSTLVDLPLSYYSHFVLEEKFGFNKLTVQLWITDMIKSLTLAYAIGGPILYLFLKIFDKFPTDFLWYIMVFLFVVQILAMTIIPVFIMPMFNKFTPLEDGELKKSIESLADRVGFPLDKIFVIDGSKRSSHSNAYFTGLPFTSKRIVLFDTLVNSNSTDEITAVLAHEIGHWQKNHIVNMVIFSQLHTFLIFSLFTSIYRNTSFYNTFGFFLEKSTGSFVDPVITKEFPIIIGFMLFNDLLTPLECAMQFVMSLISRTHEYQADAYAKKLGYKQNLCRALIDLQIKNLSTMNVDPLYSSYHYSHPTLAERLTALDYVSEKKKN
Lysine-specific demethylase 4A, sequence (O75164 whole entry): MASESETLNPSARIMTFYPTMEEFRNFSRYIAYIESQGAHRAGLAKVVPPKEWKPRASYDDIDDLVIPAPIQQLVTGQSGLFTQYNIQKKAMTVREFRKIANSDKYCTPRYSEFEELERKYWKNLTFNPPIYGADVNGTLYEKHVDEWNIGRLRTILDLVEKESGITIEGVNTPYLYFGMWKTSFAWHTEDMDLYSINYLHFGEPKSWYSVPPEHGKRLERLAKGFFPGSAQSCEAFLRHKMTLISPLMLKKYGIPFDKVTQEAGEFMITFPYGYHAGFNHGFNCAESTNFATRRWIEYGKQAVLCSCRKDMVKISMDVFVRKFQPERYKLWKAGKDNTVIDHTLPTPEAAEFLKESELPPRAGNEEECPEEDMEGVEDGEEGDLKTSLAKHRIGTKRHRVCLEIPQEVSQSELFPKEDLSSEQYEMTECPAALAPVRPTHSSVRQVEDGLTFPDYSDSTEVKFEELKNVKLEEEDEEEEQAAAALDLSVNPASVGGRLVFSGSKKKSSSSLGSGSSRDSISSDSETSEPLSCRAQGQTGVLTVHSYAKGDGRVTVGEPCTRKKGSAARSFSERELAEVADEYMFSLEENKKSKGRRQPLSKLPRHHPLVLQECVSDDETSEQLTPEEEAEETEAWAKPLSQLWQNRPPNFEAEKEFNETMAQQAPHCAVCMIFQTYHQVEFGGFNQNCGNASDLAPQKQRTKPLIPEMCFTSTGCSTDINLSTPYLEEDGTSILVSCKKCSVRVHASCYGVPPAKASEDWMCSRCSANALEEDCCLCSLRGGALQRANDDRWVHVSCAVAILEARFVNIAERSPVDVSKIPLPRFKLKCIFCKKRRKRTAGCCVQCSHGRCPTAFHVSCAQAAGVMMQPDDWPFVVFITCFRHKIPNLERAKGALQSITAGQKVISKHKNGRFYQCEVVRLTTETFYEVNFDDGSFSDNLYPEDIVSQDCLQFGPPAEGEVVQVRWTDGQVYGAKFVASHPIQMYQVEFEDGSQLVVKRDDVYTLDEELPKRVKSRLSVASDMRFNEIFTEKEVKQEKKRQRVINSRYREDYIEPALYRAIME
Neuropeptide Y receptor type 2, sequence (P49146 whole entry): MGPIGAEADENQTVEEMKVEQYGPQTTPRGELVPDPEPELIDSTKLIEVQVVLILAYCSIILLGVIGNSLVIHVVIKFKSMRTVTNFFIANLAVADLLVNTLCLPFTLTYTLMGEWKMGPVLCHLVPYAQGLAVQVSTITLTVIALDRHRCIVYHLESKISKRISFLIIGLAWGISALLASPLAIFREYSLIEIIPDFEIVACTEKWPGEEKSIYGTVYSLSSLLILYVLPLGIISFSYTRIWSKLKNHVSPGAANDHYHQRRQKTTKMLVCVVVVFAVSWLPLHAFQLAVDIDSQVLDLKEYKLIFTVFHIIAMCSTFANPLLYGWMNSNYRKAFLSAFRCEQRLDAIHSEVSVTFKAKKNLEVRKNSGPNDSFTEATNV
Trypsin, sequence (P00761 whole entry): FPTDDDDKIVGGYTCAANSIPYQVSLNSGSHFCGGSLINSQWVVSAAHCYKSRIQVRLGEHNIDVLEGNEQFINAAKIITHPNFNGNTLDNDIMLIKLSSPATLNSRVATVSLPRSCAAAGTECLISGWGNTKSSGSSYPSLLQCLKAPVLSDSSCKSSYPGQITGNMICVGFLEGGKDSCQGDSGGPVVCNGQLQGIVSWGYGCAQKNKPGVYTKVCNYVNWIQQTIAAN

AC50 [1]: 55.7 µM (active)
Compound: Cc1ccc(N(CC(=O)N2CCn3c2nc2ccccc23)S(=O)(=O)c2c(C)n[nH]c2C)cc1

Compound: CCN(CC)S(=O)(=O)c1ccc(Oc2ccc(S(=O)(=O)N(CC)CC)cc2)cc1
IC50 [2]: > 35 µM (not active) | IC50 [3]: > 35 µM (not active) | IC50 (Jurkat): > 80 µM (inactive) | IC50 [4]: > 80 µM (inactive) | AC50 (INS1): 2.23 µM (active)

IC50 [5]: > 20 µM (inactive) | AC50 (Cytochrome P450 2C19): inactive | AC50 (Cytochrome P450 1A2): inactive | AC50 (Cytochrome P450 2C9): inconclusive
Compound: COc1cc(N)c(Cl)cc1C(=O)N[C@H]1CCN(CCCOc2ccc(F)cc2)C[C@H]1OC [REL-CISAPRIDE]

AC50 (Trypsin): 45.1 µM (active) | AC50 (CAAX prenyl protease 1): 7.02 µM (active) | AC50 (CAAX prenyl protease 2): 5.24 µM (active)
Compound: CCc1nnc(NC(=O)c2ccc(NS(=O)(=O)c3ccccc3)cc2)s1
